Experimental findings from patent US20150258106A1, “METHODS FOR ACUTE AND LONG-TERM TREATMENT OF SUBSTANCE ABUSE” (DEMERX, INC., priority 2014, published 2015) are described below.

The series can be described thus: Pharmacokinetics of noribogaine in healthy volunteers, ascending single oral dose (plasma noribogaine and noribogaine glucuronide). Particulars: for AUC0-216 / AUC0-∞ / Cmax / Tmax / t1/2: healthy male volunteers, n = 6, mean (SD).
[1] abbreviates: glucuronide in plasma after single oral 30 mg noribogaine dose.
The mark [2] stands for this setting: glucuronide in plasma after single oral 60 mg noribogaine dose.
Setting [3] is: plasma noribogaine glucuronide, 30 mg and 60 mg dose groups.

For the compound `CC[C@H]1C[C@@H]2C[C@H]3c4[nH]c5ccc(OC6OC(C(=O)O)C(O)C(O)C6O)cc5c4CCN(C2)[C@@H]13` (some centres unmarked) [Noribogaine glucuronide, noribogaine glucuronide], the “proportion of noribogaine glucuronide Cmax and AUC relative to noribogaine” value (both dose groups (30 mg, 60 mg)) is recorded as 3-4%. Moreover, under setting [1], the AUC0-216 is on record as 25.7 (9.1) ng · hr/ml, the “AUC0-∞” value is given as 25.8 (9.3) ng · hr/ml, the Cmax is given as 1.8 (0.6) ng/ml and the Tmax was 3.0 (0.6) hr. Under setting [1], the t1/2 is listed as 20.6 (4.9) hr. Besides, under setting [2], the AUC0-216 is listed as 65.0 (21.5) ng · hr/ml, the “AUC0-∞” value is 67.1 (21.9) ng · hr/ml, the Cmax is on record as 4.1 (1.2) ng/ml and the Tmax is 3.8 (1.2) hr. Further, the t1/2 under setting [2] is on record as 23.1 (3.0) hr. For the same compound, under setting [3], the Mean half-life was 21 to 23 h and the “time of peak concentrations after noribogaine dosing” value is 3 to 4 h. The “time by which noribogaine glucuronide was detected in all subjects” value (plasma, after 30 mg or 60 mg noribogaine dose) is no more than 0.75 h.
